Values quoted from earlier work in patent publication US11896569B2, “Compositions comprising amino acids for use in the treatment of mucositides in neoplasia patients undergoing radiation therapy and/or chemotherapy” (priority 2015, dated 2024).

Key:
[1] = system: patients suffering from head and neck cancer
[2] = system: mucositis; details: 16 grams per day

## NC(=O)CC[C@H](N)C(=O)O [glutamine]
[1]; between 10 and 26 grams/day
  efficacy for the treatment of mucositis: ineffective
[1]; daily dose of 30 g
  severity of mucositis induced by antitumor treatments: significantly decreases the severity of mucositis
[2]
  treatment/prevention of mucositis: significant results in the treatment/prevention of mucositis were not observed
